In the supplement of paper PMC8612539:
Converted amounts (≈) assume the structure as drawn.

What was measured:
Enterococcus spp. = test: minimum inhibitory concentration (MIC)
Experimental: (§1)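 Broth microdilution MIC (Sensititre BOPO7F bovine plate, CLSI methods) of 19 antimicrobials against field isolates of P. multocida, M. haemolytica, H. somni (deep nasopharyngeal swabs) and E. coli, Enterococcus spp. (rectal swabs) from weaned dairy heifers. Incubation 16-24 h at 35 C. MIC is the lowest concentration preventing visible growth. Values with <= or > lie at the tested range limits. Trimethoprim-sulfamethoxazole is given as the trimethoprim component of a 1:19 mixture.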

Mannheimia haemolytica = test: minimum inhibitory concentration (MIC)
Experimental: as §1

CN1C[C@@H]2C[C@H]1CN2c1cc2c(cc1F)c(=O)c(C(=O)O)cn2C1CC1 [Danofloxacin]
minimum inhibitory concentration [µg/mL]
Conditions | Enterococcus spp. | Mannheimia haemolytica
isolate (source animal id): 2 | 0.25 (≈ 0.7 µM) | –
isolate (source animal id): 8 | – | 0.5 (≈ 1.4 µM)
isolate (source animal id): 13 | – | 0.5 (≈ 1.4 µM)
isolate (source animal id): 18 | – | 0.5 (≈ 1.4 µM)
isolate (source animal id): 21 | – | 0.5 (≈ 1.4 µM)
isolate (source animal id): 25 | – | 0.5 (≈ 1.4 µM)
isolate (source animal id): 27 | – | 0.25 (≈ 0.7 µM)
isolate (source animal id): 28 | – | > 1
isolate (source animal id): 30 | – | 0.5 (≈ 1.4 µM)
isolate (source animal id): 31 | – | > 1
isolate (source animal id): 32 | – | 0.25 (≈ 0.7 µM)
isolate (source animal id): 34 | – | 0.5 (≈ 1.4 µM)
isolate (source animal id): 35 | > 1 | –
isolate (source animal id): 36 | – | 0.5 (≈ 1.4 µM)
isolate (source animal id): 37 | – | 0.5 (≈ 1.4 µM)
isolate (source animal id): 40 | – | 0.5 (≈ 1.4 µM)
isolate (source animal id): 41 | – | 0.5 (≈ 1.4 µM)
isolate (source animal id): 42 | 1 (≈ 2.8 µM) | –
isolate (source animal id): 43 | – | 0.5 (≈ 1.4 µM)
isolate (source animal id): 44 | 1 (≈ 2.8 µM) | –
isolate (source animal id): 46 | – | 0.5 (≈ 1.4 µM)
isolate (source animal id): 49 | – | 0.5 (≈ 1.4 µM)
isolate (source animal id): 50 | – | 0.5 (≈ 1.4 µM)
isolate (source animal id): 51 | – | 0.5 (≈ 1.4 µM)
isolate (source animal id): 52 | – | 0.5 (≈ 1.4 µM)
isolate (source animal id): 53 | – | 0.5 (≈ 1.4 µM)
isolate (source animal id): 55 | – | 0.5 (≈ 1.4 µM)
isolate (source animal id): 56 | – | 0.5 (≈ 1.4 µM)
isolate (source animal id): 57 | – | > 1
isolate (source animal id): 79 | 1 (≈ 2.8 µM) | –
isolate (source animal id): 88 | 0.25 (≈ 0.7 µM) | –
isolate (source animal id): 91 | 0.25 (≈ 0.7 µM) | –
isolate (source animal id): 92 | 1 (≈ 2.8 µM) | –
isolate (source animal id): 100 | – | > 1
isolate (source animal id): 103 | – | 0.5 (≈ 1.4 µM)
isolate (source animal id): 107 | – | 0.5 (≈ 1.4 µM)
isolate (source animal id): 108 | – | 0.5 (≈ 1.4 µM)
isolate (source animal id): 111 | 0.25 (≈ 0.7 µM) | –
isolate (source animal id): 112 | – | 0.5 (≈ 1.4 µM)
isolate (source animal id): 113 | – | > 1
isolate (source animal id): 121 | – | 0.5 (≈ 1.4 µM)
isolate (source animal id): 122 | 1 (≈ 2.8 µM) | 0.5 (≈ 1.4 µM)
isolate (source animal id): 123 | 0.5 (≈ 1.4 µM) | > 1
isolate (source animal id): 126 | – | > 1
isolate (source animal id): 133 | 1 (≈ 2.8 µM) | > 1
isolate (source animal id): 135 | – | > 1
isolate (source animal id): 138 | – | > 1
isolate (source animal id): 141 | – | > 1
isolate (source animal id): 142 | – | > 1
isolate (source animal id): 145 | – | > 1
isolate (source animal id): 149 | – | ≤ 0.12
isolate (source animal id): 151 | – | ≤ 0.12
isolate (source animal id): 152 | – | > 1
isolate (source animal id): 154 | – | ≤ 0.12
isolate (source animal id): 158 | 1 (≈ 2.8 µM) | –
isolate (source animal id): 159 | – | > 1
isolate (source animal id): 162 | – | > 1
isolate (source animal id): 168 | 0.5 (≈ 1.4 µM) | –
isolate (source animal id): 169 | 0.5 (≈ 1.4 µM) | –
isolate (source animal id): 170 | – | ≤ 0.12
isolate (source animal id): 171 | 0.5 (≈ 1.4 µM) | ≤ 0.12
isolate (source animal id): 172 | – | ≤ 0.12
isolate (source animal id): 173 | – | ≤ 0.12
isolate (source animal id): 175 | > 1 | –
isolate (source animal id): 177 | > 1 | –
isolate (source animal id): 179 | – | ≤ 0.12
isolate (source animal id): 180 | – | ≤ 0.12
isolate (source animal id): 181 | 0.5 (≈ 1.4 µM) | –
isolate (source animal id): 182 | 1 (≈ 2.8 µM) | –
isolate (source animal id): 183 | 1 (≈ 2.8 µM) | ≤ 0.12
isolate (source animal id): 186 | – | ≤ 0.12
isolate (source animal id): 187 | 0.5 (≈ 1.4 µM) | ≤ 0.12
isolate (source animal id): 188 | – | ≤ 0.12
isolate (source animal id): 190 | 0.5 (≈ 1.4 µM) | ≤ 0.12
isolate (source animal id): 191 | – | ≤ 0.12
isolate (source animal id): 192 | – | ≤ 0.12
isolate (source animal id): 194 | 0.5 (≈ 1.4 µM) | –
isolate (source animal id): 195 | 0.5 (≈ 1.4 µM) | –
isolate (source animal id): 197 | 0.5 (≈ 1.4 µM) | –
isolate (source animal id): 201 | – | ≤ 0.12
isolate (source animal id): 202 | – | ≤ 0.12
isolate (source animal id): 209 | – | ≤ 0.12
isolate (source animal id): 211 | 1 (≈ 2.8 µM) | ≤ 0.12
isolate (source animal id): 214 | > 1 | –
isolate (source animal id): 220 | – | ≤ 0.12
isolate (source animal id): 221 | – | ≤ 0.12
isolate (source animal id): 222 | 0.5 (≈ 1.4 µM) | –
isolate (source animal id): 223 | 0.5 (≈ 1.4 µM) | ≤ 0.12
isolate (source animal id): 228 | 0.5 (≈ 1.4 µM) | –
isolate (source animal id): 230 | 0.5 (≈ 1.4 µM) | –
isolate (source animal id): 233 | – | > 1
isolate (source animal id): 235 | 0.5 (≈ 1.4 µM) | –
isolate (source animal id): 236 | > 1 | –
isolate (source animal id): 237 | – | > 1
isolate (source animal id): 239 | > 1 | –
isolate (source animal id): 241 | 0.5 (≈ 1.4 µM) | > 1
isolate (source animal id): 244 | 0.5 (≈ 1.4 µM) | –
isolate (source animal id): 246 | 0.5 (≈ 1.4 µM) | –
isolate (source animal id): 247 | 0.5 (≈ 1.4 µM) | –
isolate (source animal id): 250 | 0.25 (≈ 0.7 µM) | –
isolate (source animal id): 252 | > 1 | 0.25 (≈ 0.7 µM)
isolate (source animal id): 253 | – | 0.5 (≈ 1.4 µM)
isolate (source animal id): 259 | – | > 1
isolate (source animal id): 260 | – | 0.5 (≈ 1.4 µM)
isolate (source animal id): 262 | – | > 1
isolate (source animal id): 268 | 0.25 (≈ 0.7 µM) | –
isolate (source animal id): 282 | 1 (≈ 2.8 µM) | > 1
isolate (source animal id): 285 | 1 (≈ 2.8 µM) | –
isolate (source animal id): 287 | – | 0.5 (≈ 1.4 µM)
isolate (source animal id): 288 | – | ≤ 0.12
isolate (source animal id): 289 | 0.5 (≈ 1.4 µM) | –
isolate (source animal id): 290 | 0.5 (≈ 1.4 µM) | –
isolate (source animal id): 291 | – | ≤ 0.12
isolate (source animal id): 293 | – | 0.5 (≈ 1.4 µM)
isolate (source animal id): 296 | 0.5 (≈ 1.4 µM) | –
isolate (source animal id): 298 | 0.5 (≈ 1.4 µM) | 0.5 (≈ 1.4 µM)
isolate (source animal id): 299 | – | 0.5 (≈ 1.4 µM)
isolate (source animal id): 300 | – | ≤ 0.12
isolate (source animal id): 301 | 0.5 (≈ 1.4 µM) | –
isolate (source animal id): 302 | – | 0.5 (≈ 1.4 µM)
isolate (source animal id): 304 | – | 0.5 (≈ 1.4 µM)
isolate (source animal id): 306 | – | ≤ 0.12
isolate (source animal id): 308 | – | ≤ 0.12
isolate (source animal id): 309 | – | ≤ 0.12
isolate (source animal id): 310 | > 1 | –
isolate (source animal id): 313 | – | 0.5 (≈ 1.4 µM)
isolate (source animal id): 318 | – | 0.25 (≈ 0.7 µM)
isolate (source animal id): 320 | 0.5 (≈ 1.4 µM) | ≤ 0.12
isolate (source animal id): 321 | – | 0.5 (≈ 1.4 µM)
isolate (source animal id): 323 | – | 0.5 (≈ 1.4 µM)
isolate (source animal id): 324 | – | 0.5 (≈ 1.4 µM)
isolate (source animal id): 326 | – | 0.5 (≈ 1.4 µM)
isolate (source animal id): 328 | – | 0.5 (≈ 1.4 µM)
isolate (source animal id): 329 | – | 0.5 (≈ 1.4 µM)
isolate (source animal id): 331 | 1 (≈ 2.8 µM) | –
isolate (source animal id): 333 | 0.5 (≈ 1.4 µM) | 0.5 (≈ 1.4 µM)
isolate (source animal id): 335 | – | 0.5 (≈ 1.4 µM)
isolate (source animal id): 338 | – | 0.5 (≈ 1.4 µM)
isolate (source animal id): 341 | > 1 | –
